Assay [1] deals with cytosolic isoenzyme of the GOT (Homo sapiens, UniProt P17174). In words: Effect on activity of GOT isoenzymes in vitro (isoenzymes dissociated by isoelectric focusing), cytosolic isoenzyme. Format: biochemical. The conditions noted are these: FIG. 1b. The text has this: (§1) In FIG. 1b is shown the effect of […] (AOA) and hydroxylamine (HA) on the activity of the cytosolic and mitochondrial isoenzyme of the GOT in vitro. The isoenzymes of the GOT were dissociated by an isoelectric focusing. […] The inhibition of the GOT leads to an inhibition of the malate-aspartate shuttle. As a consequence, NAD cannot be recycled, and the glycolysis is inhibited at the stage of the GAPDH.
Sequence of cytosolic isoenzyme of the GOT (P17174 whole entry): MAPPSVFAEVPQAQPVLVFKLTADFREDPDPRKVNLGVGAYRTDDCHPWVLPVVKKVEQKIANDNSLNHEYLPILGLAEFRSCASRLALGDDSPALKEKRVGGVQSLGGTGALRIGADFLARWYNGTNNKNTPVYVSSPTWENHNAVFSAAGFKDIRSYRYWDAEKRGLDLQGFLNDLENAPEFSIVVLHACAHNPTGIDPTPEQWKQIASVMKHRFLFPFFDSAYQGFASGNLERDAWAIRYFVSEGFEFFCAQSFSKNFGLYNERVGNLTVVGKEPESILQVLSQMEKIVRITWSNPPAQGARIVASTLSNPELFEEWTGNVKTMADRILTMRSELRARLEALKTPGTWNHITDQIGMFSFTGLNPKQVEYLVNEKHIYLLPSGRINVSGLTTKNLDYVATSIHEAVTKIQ

Assay [2] concerns the target T1, mitochondrial isoenzyme of the GOT (Homo sapiens, UniProt P00505).
T1 sequence (P00505 30-430): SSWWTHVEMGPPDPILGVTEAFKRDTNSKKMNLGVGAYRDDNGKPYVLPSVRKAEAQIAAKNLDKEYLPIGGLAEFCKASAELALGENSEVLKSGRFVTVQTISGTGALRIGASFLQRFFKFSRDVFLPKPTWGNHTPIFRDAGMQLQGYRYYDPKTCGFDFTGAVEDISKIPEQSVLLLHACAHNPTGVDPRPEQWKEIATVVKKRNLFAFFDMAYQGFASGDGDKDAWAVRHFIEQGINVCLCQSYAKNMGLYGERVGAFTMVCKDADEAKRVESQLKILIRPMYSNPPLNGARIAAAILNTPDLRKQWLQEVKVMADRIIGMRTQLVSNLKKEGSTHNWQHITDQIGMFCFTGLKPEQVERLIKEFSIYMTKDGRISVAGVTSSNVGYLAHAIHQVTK
In words: Effect on activity of GOT isoenzymes in vitro (isoenzymes dissociated by isoelectric focusing), mitochondrial isoenzyme. Format: biochemical. Particulars: FIG. 1b.
From the text: as §1

Regarding `NO` [hydroxylamine], in assay [1], the “effect on the activity of the cytosolic isoenzyme of the GOT” value is reported as “inhibits both isoenzymes”. Besides, in assay [2], the “effect on the activity of the mitochondrial isoenzyme of the GOT” value is “inhibits both isoenzymes”.

In the case of `NOCC(=O)O` [aminooxyacetate, (aminooxy)acetic acid], in assay [1], the “effect on the activity of the cytosolic isoenzyme of the GOT” value is “mainly inhibits the cytosolic isoenzyme”.

The values are drawn from US7223784B2, “Compounds for the modulation of the glycolysis enzyme and/or transaminase complex” (ScheBo® Biotech AG, priority 2002, dated 2007).
